Read-outs that look alike come from different tables or passages of the source.
Assay: TRM-201-PK-102 single-dose four-period crossover pharmacokinetic study, fasted healthy subjects
Assay type: in vivo, human
Conditions: for geometric mean ratio AUC0-∞ to historical data for the 25 mg VIOXX product / geometric mean ratio Cmax to historical data for the 25 mg VIOXX product: sensitivity analysis; for AUC(0-inf) / Cmax: human, plasma, oral
Protocol: A Single-Dose, Open-Label, Phase 1, Four-Period Crossover Pharmacokinetic Study of TRM-201 (Rofecoxib) 12.5 mg, 17.5 mg, 20 mg and 25 mg Administered to Healthy Subjects in a Fasting State, with Comparison to Historical Pharmacokinetic Parameters of Previously Marketed Rofecoxib (“TRM-201-PK-102” or “102 PK Study”)
This was a single-center, open-label four-period crossover PK study of TRM-201. The study included 24 subjects who received TRM-201 as a single dose of 12.5 mg, 17.5 mg, 20 mg and 25 mg to assess the PK of TRM-201 in healthy volunteers under fasted conditions. Subjects were randomized to one of four treatment sequences. The PK data from the current study along with the data from the TRM-201-PK-101 study (Example 4) was used to compare to historical pharmacokinetic parameters of previously marketed rofecoxib, all in a fasted state.
In each of the four dosing periods, subjects fasted overnight for at least 10 hours before study drug dosing. While fasting, subjects had nothing to eat and only water to drink. Water was permitted as desired, except for the period between 1 hour before and 1 hour after study drug dosing (excepting as permitted for dosing). After the 2-hour PK blood sample, subjects were allowed one 250-mL cup of clear apple juice. After the 4-hour PK blood sample, subjects were served a light lunch. Following the light lunch, subjects received standardized meals according to the clinic's standard procedures that were scheduled at consistent times and at least 15 minutes before or 15 minutes after PK sampling time points. Blood was withdrawn for PK analysis at predefined time points. For each dosing period the last time point was 120 hours after dosing with study drug (Day 6). After the 120 hour PK sample, the EOP procedures was completed, subjects remained in-clinic for the in-between dose period day (Days 7, 14, and 21) and began the next dosing period starting with an overnight fast for at least 10 hours on Day −1 of the subsequent dosing period. Pharmacokinetic and safety endpoints were evaluated.
The study drug, TRM-201, was an immediate-release tablet that contained 12.5 mg rofecoxib, 17.5 mg rofecoxib, 20 mg rofecoxib or 25 mg rofecoxib. The 7.25-mm diameter tablets were off-white, round, and uncoated with no markings. TRM-201 tablets were for oral administration.
For each sample, approximately 3 mL of blood were drawn. The samples were obtained by a straight stick or via an in-dwelling intravenous (IV) catheter in a forearm vein. Additional details for the collection, processing, storage, and shipping of PK samples were provided in the study manual.
Pharmacokinetic samples will be analyzed using a validated assay for rofecoxib in human plasma. Assay results and validation details will be provided in a separate bioanalytical report. The following PK parameters for rofecoxib will be calculated as primary endpoints using standard noncompartmental methods: AUC0-∞ and Cmax. Secondary endpoints include Tmax, and t1/2. Additional PK parameters (e.g., CL/F, and Vd/F) will also be calculated using standard noncompartmental methods.
Individual plasma concentrations for rofecoxib and PK sampling time deviation data will be presented in a data listing. Plasma concentration data will be summarized by time point using the following descriptive statistics: number of subjects, arithmetic mean, SD, coefficient of variation (CV), geometric mean, natural-log-scale SD, geometric CV, median, minimum, and maximum. Individual plasma concentration versus actual time profiles were presented on both linear and semilogarithmic scales. Additionally, arithmetic mean concentration versus scheduled time profiles were presented on linear scales and geometric means on semilogarithmic scales.
The PK parameters of rofecoxib were analyzed based on the actual sampling times. […]

CS(=O)(=O)c1ccc(C2=C(c3ccccc3)C(=O)OC2)cc1 [TRM-201, 4-[4-(methylsulfonyl)phenyl]-3-phenyl-2(5H)-furanone]
arithmetic mean plasma concentration (17.5 mg, 15 minutes): 2.42 ng/mL | arithmetic mean plasma concentration (17.5 mg, 45 minutes): 93 ng/mL | geometric mean ratio AUC0-∞ to historical data for the 25 mg VIOXX product (TRM-201 17.5 mg): 0.819 | geometric mean ratio Cmax to historical data for the 25 mg VIOXX product (TRM-201 17.5 mg): 1.03 | geometric mean ratio AUC0-∞ to historical data for the 25 mg VIOXX product (TRM-201 20 mg): 0.934 | geometric mean ratio Cmax to historical data for the 25 mg VIOXX product (TRM-201 20 mg): 1.19 | AUC(0-inf) (female, 12.5 mg, 102 study, females, read-out: arithmetic mean AUC0-∞): 2240 ng·h/mL | Cmax (female, 12.5 mg, 102 study, females, read-out: arithmetic mean Cmax): 168 ng/mL | AUC(0-inf) (female, 12.5 mg, 102 study, females, read-out: geometric mean AUC0-∞): 2170 ng·h/mL | Cmax (female, 12.5 mg, 102 study, females, read-out: geometric mean Cmax): 160 ng/mL | AUC(0-inf) (female, 17.5 mg, 102 study, females, read-out: arithmetic mean AUC0-∞): 3650 ng·h/mL | Cmax (female, 17.5 mg, 102 study, females, read-out: arithmetic mean Cmax): 266 ng/mL | AUC(0-inf) (female, 17.5 mg, 102 study, females, read-out: geometric mean AUC0-∞): 3490 ng·h/mL | Cmax (female, 17.5 mg, 102 study, females, read-out: geometric mean Cmax): 251 ng/mL | AUC(0-inf) (female, 20 mg, 102 study, females, read-out: arithmetic mean AUC0-∞): 4270 ng·h/mL | Cmax (female, 20 mg, 102 study, females, read-out: arithmetic mean Cmax): 314 ng/mL | AUC(0-inf) (female, 20 mg, 102 study, females, read-out: geometric mean AUC0-∞): 4160 ng·h/mL | Cmax (female, 20 mg, 102 study, females, read-out: geometric mean Cmax): 293 ng/mL | AUC(0-inf) (female, 25 mg, 102 study, females, read-out: arithmetic mean AUC0-∞): 5090 ng·h/mL | Cmax (female, 25 mg, 102 study, females, read-out: arithmetic mean Cmax): 388 ng/mL | AUC(0-inf) (12.5 mg, 102 study only, read-out: arithmetic mean AUC0-∞): 2010 ng·h/mL | Cmax (12.5 mg, 102 study only, read-out: arithmetic mean Cmax): 151 ng/mL | AUC(0-inf) (12.5 mg, 102 study only, read-out: geometric mean AUC0-∞): 1880 ng·h/mL | Cmax (12.5 mg, 102 study only, read-out: geometric mean Cmax): 144 ng/mL | AUC(0-inf) (12.5 mg, 102 study, 18-40 years, read-out: arithmetic mean AUC0-∞): 1680 ng·h/mL | Cmax (12.5 mg, 102 study, 18-40 years, read-out: arithmetic mean Cmax): 164 ng/mL | AUC(0-inf) (12.5 mg, 102 study, 18-40 years, read-out: geometric mean AUC0-∞): 1570 ng·h/mL | Cmax (12.5 mg, 102 study, 18-40 years, read-out: geometric mean Cmax): 156 ng/mL | AUC(0-inf) (12.5 mg, 102 study, 41-52 years, read-out: arithmetic mean AUC0-∞): 2090 ng·h/mL | Cmax (12.5 mg, 102 study, 41-52 years, read-out: arithmetic mean Cmax): 140 ng/mL | AUC(0-inf) (12.5 mg, 102 study, 41-52 years, read-out: geometric mean AUC0-∞): 1880 ng·h/mL | Cmax (12.5 mg, 102 study, 41-52 years, read-out: geometric mean Cmax): 133 ng/mL | AUC(0-inf) (12.5 mg, 102 study, 53-60 years, read-out: arithmetic mean AUC0-∞): 2270 ng·h/mL | Cmax (12.5 mg, 102 study, 53-60 years, read-out: arithmetic mean Cmax): 150 ng/mL | AUC(0-inf) (12.5 mg, 102 study, 53-60 years, read-out: geometric mean AUC0-∞): 2240 ng·h/mL | Cmax (12.5 mg, 102 study, 53-60 years, read-out: geometric mean Cmax): 143 ng/mL | AUC(0-inf) (12.5 mg, 102 study, Black or African-American subjects, read-out: arithmetic mean AUC0-∞): 1660 ng·h/mL | Cmax (12.5 mg, 102 study, Black or African-American subjects, read-out: arithmetic mean Cmax): 143 ng/mL | AUC(0-inf) (12.5 mg, 102 study, Black or African-American subjects, read-out: geometric mean AUC0-∞): 1590 ng·h/mL | Cmax (12.5 mg, 102 study, Black or African-American subjects, read-out: geometric mean Cmax): 142 ng/mL | AUC(0-inf) (12.5 mg, 102 study, Hispanic or Latino subjects, read-out: arithmetic mean AUC0-∞): 2210 ng·h/mL | Cmax (12.5 mg, 102 study, Hispanic or Latino subjects, read-out: arithmetic mean Cmax): 157 ng/mL | AUC(0-inf) (12.5 mg, 102 study, Hispanic or Latino subjects, read-out: geometric mean AUC0-∞): 2090 ng·h/mL | Cmax (12.5 mg, 102 study, Hispanic or Latino subjects, read-out: geometric mean Cmax): 146 ng/mL | AUC(0-inf) (12.5 mg, 102 study, White subjects, read-out: arithmetic mean AUC0-∞): 2110 ng·h/mL | Cmax (12.5 mg, 102 study, White subjects, read-out: arithmetic mean Cmax): 153 ng/mL | AUC(0-inf) (12.5 mg, 102 study, White subjects, read-out: geometric mean AUC0-∞): 1960 ng·h/mL | Cmax (12.5 mg, 102 study, White subjects, read-out: geometric mean Cmax): 144 ng/mL | AUC(0-inf) (12.5 mg, 102 study, body weight 47-70 kg, read-out: arithmetic mean AUC0-∞): 1850 ng·h/mL | Cmax (12.5 mg, 102 study, body weight 47-70 kg, read-out: arithmetic mean Cmax): 175 ng/mL | AUC(0-inf) (12.5 mg, 102 study, body weight 47-70 kg, read-out: geometric mean AUC0-∞): 1690 ng·h/mL | Cmax (12.5 mg, 102 study, body weight 47-70 kg, read-out: geometric mean Cmax): 165 ng/mL | AUC(0-inf) (12.5 mg, 102 study, body weight 70.1-77 kg, read-out: arithmetic mean AUC0-∞): 2500 ng·h/mL | Cmax (12.5 mg, 102 study, body weight 70.1-77 kg, read-out: arithmetic mean Cmax): 155 ng/mL | AUC(0-inf) (12.5 mg, 102 study, body weight 70.1-77 kg, read-out: geometric mean AUC0-∞): 2420 ng·h/mL | Cmax (12.5 mg, 102 study, body weight 70.1-77 kg, read-out: geometric mean Cmax): 147 ng/mL | AUC(0-inf) (12.5 mg, 102 study, body weight 77.1-90 kg, read-out: arithmetic mean AUC0-∞): 1790 ng·h/mL

Reference: patent US10945992B1, “Dosage forms of rofecoxib and related methods” (Tremeau Pharmaceuticals, Inc., priority 2019, dated 2021)
